# Experimental data: patent US20130023485A1, “PARENTERAL FORMULATIONS OF PEPTIDES FOR THE TREATMENT OF SYSTEMATIC LUPUS ERYTHEMATOSUS” (Teva Pharmaceutical Industries, Ltd., priority 2003, published 2013)
# Assays:
# [1] = system: Compound 1 reference standard (RS) specific T-cells; assay: Inhibition of IL-2 secretion from T-cells of immunized mice after s.c. treatment (ELISA); format: in vivo
# Excerpt: The biological activity was monitored by inhibition of IL-2 secretion from Compound 1 reference standard (RS) specific T-cells following subcutaneous (s.c.) treatment with the lyophilized compound solution, i.e. the drug product (DP), at two concentrations. The results of the treatment are compared to those of treating mice with Compound 1 (RS) in phosphate buffered saline (PBS).
# (NZB×NZW)F1 female mice = assay: Lupus symptoms in SLE-prone (NZB×NZW)F1 female mice; format: in vivo, mouse
# Method: The same batch of drug substance was used in this study and in the first Phase I clinical trial with Compound 1. The mice were followed for anti-dsDNA antibodies and for proteinuria. When the mice were sacrificed, the intensity of ICD was determined in kidneys.
# SLE subjects [2] = assay: Phase Ia clinical study, single s.c. dose, tolerability and safety; format: in vivo, human
# Method: Thirty-six (36) subjects participated in the study. To be eligible for inclusion in the study, SLE patients must have fulfilled at least four criteria used for the diagnosis of lupus by the American College of Rheumatology. Patients must also have had stable, mild/moderate disease and score less than or equal to 10 on the SLE Disease Activity Index, SLEDAI. […] A standard battery of safety tests, including blood and urine collection for laboratory tests, was performed at screening, during the day of dosing, at 24 hours post-dose and at 2, 4 and 8 weeks following dosing. Prior to dosing, and on scheduled follow-up visits, blood samples were withdrawn for SLE-related immunological tests, anti-Compound 1 antibodies and PBL proliferation assay. […] The following safety parameters were assessed at Screening, during the hospitalization and at follow-up visits including Termination visit: vital signs (systolic blood pressure, diastolic blood pressure, pulse, oxygen saturation, temperature and weight), 12-lead ECG, change in physical examination and clinical routine laboratory safety tests. Adverse events were recorded at the Dosing Day and at each visit thereafter. SLE-related immunological tests were performed at Screening, during the hospitalization and at follow-up visits including Termination visit. […] Disease activity assessment using the SLE disease activity index score, year 2000 updated (SLEDAI 2K) was assessed at Screening, during the hospitalization and at follow-up visits including Termination visit.
# SLE subjects [3] = assay: Phase Ib clinical study, multiple s.c. doses, tolerability and safety; format: in vivo, human; details: multiple s.c. doses of 0.5, 1 or 2.5 mg in 120 mg Captisol®, 12 injections in 4 weeks
# Method: This study is being performed in order to evaluate the safety and tolerability of repeated Compound 1 sc administration to SLE subjects. […] Subjects are monitored on planned visits scheduled at 2, 4, 8 and 12 weeks after start of dosing. Safety and tolerability are evaluated using tests similar to those described in the Phase Ia Clinical Study above.
# [4] = system: IL-2 secretion by PBL of SLE patients; assay: Inhibition of IL-2 secretion by PBL stimulated with human 16/6Id mAb (CTLL line); format: cell-based
# Method: It was of interest to find out whether the hCDR peptides are capable of inhibiting IL-2 secretion by PBL of SLE patients following stimulation with the human 16/6Id mAb. […] To this end, PBL of SLE patients were incubated with the human 16/6Id mAb in the absence or presence of the peptides hCDR1 or hCDR3. Supernatants of the cultures were collected following 48 hours of incubation. Assays to determine levels of IL-2 in the supernatants were performed using the CTLL IL-2 dependent line. Briefly, cells of the CTLL line (2×10^4/well) were incubated in the presence of the different supernatants for 24 hours, followed by the addition of ^3H-thymidine for an additional 18-hour incubation period. Cells were then harvested and radioactivity counted using a β-counter. Results were calculated based on recombinant human IL-2 used as a standard. The ability of the peptides to inhibit the IL-2 secretion of PBL of 23 responders stimulated by the human 16/6 Id was tested. […] Inhibition of proliferative responses of PBL directly correlated with IL-2 inhibition by the CDR-based peptides.
# [5] = system: TGF-β secretion by PBL of SLE patients; assay: Up-regulation of TGF-β secretion by PBL stimulated with human 16/6Id mAb (ELISA); format: cell-based
# Method: For this purpose, supernatants were removed from cultures of PBL of various SLE patients following 48 hours incubation with the human 16/6Id mAb in the absence or presence of the peptides hCDR1 or hCDR3. TGF-β was determined by ELISA according to the manufacturer's instructions. Briefly, Maxisorb plates (Nunc) were coated with recombinant human TGFβsRII/Fc chimera (R & D Systems) diluted in PBS (100 ng/ml). After blocking, cell supernatants were added. After 18 hours incubation the detecting biotinylated anti-human TGF-β antibody (R & D Systems) was added. The substrate solution used was the TMB Colour Reagent (Helix Diagnostics) and enzyme activity was evaluated by the MRX ELISA reader using the 570 nm and 630 nm filters.
# [6] = treated 50 μg/mouse s.c., activator Compd. 1 RS 5 μg/ml
# [7] = treated 50 μg/mouse s.c., activator Compd. 1 RS 10 μg/ml
# [8] = treated 50 μg/mouse s.c., activator Compd. 1 RS 25 μg/ml
# [9] = treated 50 μg/mouse s.c., activator Compd. 1 RS 50 μg/ml
# [10] = treated 50 μg/mouse s.c., activator Compd. 1 RS 100 μg/ml
# [11] = treated 50 μg/mouse s.c., activator Compd. 1 RS […]
# [12] = treated 200 μg/mouse s.c., activator Compd. 1 RS 5 μg/ml
# [13] = treated 200 μg/mouse s.c., activator Compd. 1 RS 10 μg/ml
# [14] = treated 200 μg/mouse s.c., activator Compd. 1 RS 25 μg/ml
# [15] = treated 200 μg/mouse s.c., activator Compd. 1 RS 50 μg/ml
# [16] = treated 200 μg/mouse s.c., activator Compd. 1 RS 100 μg/ml
# [17] = single s.c. 0.5, 1 or 2.5 mg in Captisol®
substance,measurement,setting,value
H-GYYWSWIRQPPGKGEEWIG-OH [Compound 1],Average inhibition (%) (at the range of 5-100 μg/ml),[1]; treated 50 μg/mouse s.c.,45.6%
same,IL-2 secretion,"[1]; treated 50 μg/mouse s.c., activator Compd. 1 RS 0 μg/ml",BQL
same,IL-2 secretion,"[1]; treated 50 μg/mouse s.c., activator Compd. 1 RS 0.5 μg/ml",9 pg/mL
same,IL-2 secretion,"[1]; treated 50 μg/mouse s.c., activator Compd. 1 RS 1 μg/ml",BQL
same,% inhib. of IL-2 secretion,[1]; [6],55%
same,IL-2 secretion,[1]; [6],9 pg/mL
same,% inhib. of IL-2 secretion,[1]; [7],38%
same,IL-2 secretion,[1]; [7],16 pg/mL
same,% inhib. of IL-2 secretion,[1]; [8],48%
same,IL-2 secretion,[1]; [8],15 pg/mL
same,% inhib. of IL-2 secretion,[1]; [9],47%
same,IL-2 secretion,[1]; [9],21 pg/mL
same,% inhib. of IL-2 secretion,[1]; [10],41%
same,IL-2 secretion,[1]; [10],25 pg/mL
same,% inhib. of IL-2 secretion,[1]; [11],51%
same,IL-2 secretion,[1]; [11],8 pg/mL
same,IL-2 secretion,"[1]; treated 50 μg/mouse s.c., activator Con A […]","6,215 pg/ml"
same,Average inhibition (%) (at the range of 5-100 μg/ml),[1]; treated 200 μg/mouse s.c.,60.4%
same,IL-2 secretion,"[1]; treated 200 μg/mouse s.c., activator Compd. 1 RS 0 μg/ml",BQL
same,IL-2 secretion,"[1]; treated 200 μg/mouse s.c., activator Compd. 1 RS 0.5 μg/ml",10 pg/mL
same,IL-2 secretion,"[1]; treated 200 μg/mouse s.c., activator Compd. 1 RS 1 μg/ml",BQL
same,% inhib. of IL-2 secretion,[1]; [12],60%
same,IL-2 secretion,[1]; [12],8 pg/mL
same,% inhib. of IL-2 secretion,[1]; [13],58%
same,IL-2 secretion,[1]; [13],11 pg/mL
same,% inhib. of IL-2 secretion,[1]; [14],63%
same,IL-2 secretion,[1]; [14],11 pg/mL
same,% inhib. of IL-2 secretion,[1]; [15],62%
same,IL-2 secretion,[1]; [15],15 pg/mL
same,% inhib. of IL-2 secretion,[1]; [16],58%
same,IL-2 secretion,[1]; [16],18 pg/mL
same,IL-2 secretion,"[1]; treated 200 μg/mouse s.c., activator Compd. 1 RS […]",BQL
same,IL-2 secretion,"[1]; treated 200 μg/mouse s.c., activator Con A […]","5,403 pg/ml"
same,Mean Proteinuria ± SEM,"(NZB×NZW)F1 female mice; 25 μg/mouse s.c. once a week in Captisol®, 5 weeks following treatment initiation",0.16 ± 0.05 g/L
same,Mean Proteinuria ± SEM,"(NZB×NZW)F1 female mice; 25 μg/mouse s.c. once a week in Captisol®, 7 weeks following treatment initiation",1.26 ± 1.09 g/L
same,Mean Proteinuria ± SEM,"(NZB×NZW)F1 female mice; 25 μg/mouse s.c. once a week in Captisol®, 8 weeks following treatment initiation",0.5 ± 0.31 g/L
same,Mean Proteinuria ± SEM,"(NZB×NZW)F1 female mice; 25 μg/mouse s.c. once a week in Captisol®, 10 weeks following treatment initiation",0.56 ± 0.3 g/L
same,Mean Proteinuria ± SEM,"(NZB×NZW)F1 female mice; 50 μg/mouse s.c. once a week in Captisol®, 5 weeks following treatment initiation",0.75 ± 0.3 g/L
same,Mean Proteinuria ± SEM,"(NZB×NZW)F1 female mice; 50 μg/mouse s.c. once a week in Captisol®, 7 weeks following treatment initiation",0.81 ± 0.3 g/L
same,Mean Proteinuria ± SEM,"(NZB×NZW)F1 female mice; 50 μg/mouse s.c. once a week in Captisol®, 8 weeks following treatment initiation",1.09 ± 0.4 g/L
same,Mean Proteinuria ± SEM,"(NZB×NZW)F1 female mice; 50 μg/mouse s.c. once a week in Captisol®, 10 weeks following treatment initiation",1.29 ± 0.3 g/L
same,"ICD (Immune Complex Deposits) intensity, Mean ± SEM","(NZB×NZW)F1 female mice; 50 μg/mouse, kidneys at sacrifice, scale 0 = none, 1 = moderate, 2 = severe, 3 = severe/extremely intense",1.90 ± 0.23
same,levels of dsDNA-specific antibodies versus control,"(NZB×NZW)F1 female mice; 25 or 50 μg/mouse, after 10 treatment injections",no significant differences
same,intensity of immune complex deposits in kidney sections versus control group,"(NZB×NZW)F1 female mice; either dose level (25 or 50 μg/mouse), FIG. 6",much lower
same,QTc change from baseline,SLE subjects [2]; [17],no QTc change from baseline>60 msec
same,categorical ECG measurements and digitized ECG parameters versus placebo,SLE subjects [2]; [17],No differences of clinical significance
same,"hematology, biochemistry or urinalysis values",SLE subjects [2]; [17],No clinically significant effect
same,incidence of AEs versus placebo,SLE subjects [2]; [17],no prominent difference
same,physical exam,SLE subjects [2]; [17],No clinically significant effects
same,serious or severe adverse events,SLE subjects [2]; [17],No serious adverse event (SAE) or AE classified as severe occurred
same,temperature and weight,SLE subjects [2]; [17],No clinically significant effect
same,"vital signs (systolic, diastolic blood pressure, pulse, oxygen saturation)",SLE subjects [2]; [17],No clinically significant effect
same,immunological response to tetanus toxoid (TTX) recall antigen,SLE subjects [2]; single s.c. dose in Captisol®,did not change
same,safety and tolerability,"SLE subjects [2]; single s.c. dose of 0.5, 1 or 2.5 mg in 120 mg Captisol®",safe and well tolerated
same,safety and tolerability,SLE subjects [3],safe and well tolerated
same,patients whose PBL IL-2 secretion was inhibited / tested,[4]; 23 responders,21/23
same,Maximum inhibition %,[4]; IL-2 secretion with 16/6 Id alone = 100%,84 ± 31%
same,Inhibitory Activity* % (patients with inhibition of 50% or more),[4]; PBL of 23 responders,91 (21/23) %
same,inhibition of IL-2 secretion,"[4]; PBL of one SLE patient, FIG. 12",100%
same,Up-Regulation of TGF-β % (patients),"[5]; PBL of SLE patients, 48 hours",100 (19/19) %
same,secretion of TGF-β,"[5]; PBL of one representative SLE patient, FIG. 13",significant up-regulation
same,Maximum Up-regulation %,[5]; percent secretion above that in the presence of 16/6 Id alone (= 100%),305 ± 221%
